Patent publication US12286452B2, “Amphiphilic aminoglycoside connexin hemichannel inhibitors” (Texas Tech University System, priority 2018, dated 2025)
Read-outs that look alike come from different tables or passages of the source.

Columns and labels:
[1] = target: T1, Cx43 HCs (Homo sapiens, UniProt P17302); assay: Cx43-dependent growth complementation assay in E. coli LB2003; type: cell-based; conditions: for Cx43/Cx26 Selectivity: IC50 Cx26/IC50 Cx43; for inhibition at 15 µM / Cx43 inhibition (%): 15 μM; for IC50: read-out: Cx43 IC50
T1 construct: expressed in transfected cells

[2] = target: T1, Cx43 HCs; conditions: cited from earlier work
[3] = target: T2, human Cx26 HCs (Homo sapiens, UniProt P29033); assay: Cx26-dependent growth complementation assay in E. coli LB2003; type: cell-based; conditions: for IC50: read-out: Cx26 IC50
T2 construct: expressed in transfected cells; host or cells: E. coli LB2003 (carrying pREP4), transformed with pQE-Cx26, IPTG-induced
Protocol: These derivatives were prepared by sequential benzylation and methylation followed by reduction of azido groups or hydrogenolysis of the Bn. […] Connexin HC inhibition was conducted using a bacteria-based assay of HC function^39. In this assay, Cx26 HCs are expressed in E. coli LB2003 cells, which lack three major K^+ uptake systems (Kdp, Kup and Trk), and as a result they cannot grow in low-[K^+] media^39-41. However, growth of this E. coli strain in low-[K^+] medium can be rescued by expression of K^+-permeable channels such as connexin HCs^39, 42-43. Under the conditions of the assay (LB2003 cells expressing HCs and grown in low-K^+ medium), inhibition of the HCs reduces or abolishes growth^39, 42-43. This is a simple assay where bacterial growth in multi-well plates can be followed by measuring the absorbance at 600 nm (OD600)^29.
LB2003 cells generously provided by Dr. E. P. Bakker (Osnabruk University, Osnabruk, Germany) were transformed with the plasmid pQE-Cx26 (human Cx26 into pQE60) and pREP4. […] LB2003 cells cannot grow in low-[K^+] media because of insufficient K^+ uptake for growth due to the knockout of three key K^+ transporters (Atrk, Akup, Akdp strain)^2-4. Details and validation of the growth complementation assay have been published recently^2. In brief, competent LB2003 containing the pREP4 plasmid were transformed with pQE-Cx26. These cells were grown overnight in Luria-Bertani medium (BD, Franklin Lakes, NJ, USA) supplemented with 100 mM KCl (to allow growth) and 0.4 mg/mL ampicillin, and then washed four times with NLM (see below), to remove residual K^+ from the Luria-Bertani medium. The washed cells were resuspended in complementation growth medium to an OD600 of 0.2. NLM contained 46 mM Na2HPO4, 23 mM NaH2PO4, 8 mM (NH4)2SO4, 0.4 mM MgSO4, 0.012 mM FeSO4, 1 mM sodium citrate, 44 mM glucose and 0.006 mM thiamine hydrochloride, pH 7.0. KLM had the same composition that NLM except for the equimolar replacement of Na^+ with K^+. For growth complementation we used NLM+4 mM KCl, and Cx26 expression was induced with 0.5 mM IPTG at the time of dilution to OD600=0.2. For the assay, the cells were seeded in 96-well plates and were incubated at 30° C., with shaking at 500 rpm. OD600 was measured after 18-h incubation in a plate reader. The initial OD600=0.2 was subtracted for growth calculations. Data are presented as means±SEM. Statistically significant differences were calculated by the Student t-test for unpaired data. Data were obtained from at least 3 independent experiments, with 3 repeats per experiment.

[4] = target: T2, human Cx26 HCs; conditions: commercial aminoglycosides, the 16th table, adapted from ref. 1; cited from earlier work
[5] = Table 3, read-out: Cx243% inhibition
[6] = commercial aminoglycosides, the 16th table, adapted from ref. 1, read-out: Cx43 IC50
[7] = K members, the 21st table, read-out: Cx43 % inhibition
[8] = Table 6, read-out: Cx43 (% inhibition)
[9] = the 15th table, second Cx43 column, sub-head and unit not given
[10] = the 15th table, sub-head and unit inferred
[11] = the 15th table, Cx26, sub-head and unit not given
[12] = the 15th table, Cx26, unit not given (cf. the 22nd table)
[13] = KI members, the 23rd table, read-out: Cx43 % inhibition

T1 sequence (P17302 whole entry): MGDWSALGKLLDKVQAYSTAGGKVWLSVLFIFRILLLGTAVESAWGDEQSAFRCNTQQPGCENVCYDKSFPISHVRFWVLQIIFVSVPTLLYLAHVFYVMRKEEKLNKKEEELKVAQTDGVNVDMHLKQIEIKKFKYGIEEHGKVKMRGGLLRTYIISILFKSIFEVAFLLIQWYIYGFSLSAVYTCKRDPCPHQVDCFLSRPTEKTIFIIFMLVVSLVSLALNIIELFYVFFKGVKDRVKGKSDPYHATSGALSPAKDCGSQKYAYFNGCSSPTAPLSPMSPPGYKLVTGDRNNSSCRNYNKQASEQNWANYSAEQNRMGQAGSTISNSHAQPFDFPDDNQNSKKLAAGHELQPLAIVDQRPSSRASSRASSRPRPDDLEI

| Compound | inhibition at 15 µM [1, 5] [%] | inhibition at 50 µM [1, 5] [%] | inhibition at 15 µM ([3]; Table 3) [%] | inhibition at 50 µM ([3]; Table 3) [%] | IC50 [4] [µM] | IC50 [2, 6] [µM] | inhibition at 15 µM [1, 8] [%] | inhibition at 50 µM [1, 8] [%] | IC50 ([1]; Table 7) [µM] | Cx43 Imax [1, 9] | IC50 [1, 10] [µM] | inhibition at 15 µM ([3]; Table 6) [%] | inhibition at 50 µM ([3]; Table 6) [%] | inhibition at 15 µM [1, 13] [%] | inhibition at 50 µM [1, 13] [%] | other results |
| --- | --- | --- | --- | --- | --- | --- | --- | --- | --- | --- | --- | --- | --- | --- | --- | --- |
| NCC1O[C@H](OC2C(N)CC(N)C(OC3O[C@H](CO)C(O)C(N)[C@H]3O)C2O)C(O)[C@@H](O)[C@@H]1O (stereo in doubt) [Kanamycin A, reference compound] | 15.6 ± 1.4 | 40.4 ± 1 | 49.7 ± 1.6 | 77.4 ± 1.8 |  |  |  |  |  |  |  |  |  |  |  | IC50 ([2]; approximate, text b120, read-out: IC50 for inhibition of Cx43 HCs): ~50 µM |
| CN[C@@H]1[C@@H](O)[C@@H](O[C@@H]2[C@@H](O)[C@H](O[C@H]3O[C@H]([C@@H](C)O)[C@@H](O)[C@H](O)[C@H]3N)[C@@H](N)C[C@H]2N)OC[C@]1(C)O [Compound G418, G418] |  |  |  |  | 0.44 ± 0.06 | 3 ± 0.8 |  |  |  |  |  |  |  |  |  | Cx43/Cx26 Selectivity ([1]; the 16th table): 0.20 |
| Cc1ccc(OC[C@H]2OC(OC3C(N)CC(N)C(O[C@H]4OC(CN)[C@@H](O)C(O)C4O)[C@@H]3O)[C@H](O)C(N)C2O)cc1 (some centres unmarked) [Compound K82] |  |  | 19.3 ± 2.2 | 28.2 ± 4.5 |  |  | > 50 | 76.8 ± 5.8 | 6.2 ± 1.4 | 91.1 ± 11.5 | 7.1 ± 1.4 | 19.3 ± 2.2 | 28.2 ± 4.5 |  |  | inhibition at 15 µM [1, 7]: 58.4 ± 10.6%; Cx43 inhibition (%) ([1]; Table 6, listed as 8b): 63.8 ± 6.8%; inhibition at 50 µM [1, 7]: 71 ± 14.1%; Cx43/Cx26 Selectivity ([1]; Table 7, listed as 8b): 7.97; Cx43 Imax ([1]; the 22nd table): 91.1 ± 11.5%; IC50 ([1]; the 22nd table): 7.1 ± 1.4 µM; Cx43 Imax ([1]; the 24th table): 91.1 ± 11.5%; IC50 ([1]; the 24th table): 7.1 ± 1.4 µM; IC50 ([3]; Table 7): 49.4 ± 9.3 µM |
| NCC1O[C@H](OC2C(N)CC(N)C(OC3O[C@H](COc4ccc(Cl)cc4)C(O)C(N)[C@H]3O)[C@H]2O)C(O)C(O)[C@@H]1O (some centres unmarked) [Compound K84] |  |  | 44.4 ± 7 | 69.5 ± 4.5 |  |  | > 50 | 68.3 ± 4.6 | 8.9 ± 1.6 | 80.6 ± 6.0 | 8.9 ± 1.6 | 44.4 ± 7 | 69.5 ± 4.5 |  |  | inhibition at 15 µM [1, 7]: 45.8 ± 6.4%; Cx43 inhibition (%) ([1]; Table 6, listed as 8d): 50.3 ± 1.0%; inhibition at 50 µM [1, 7]: 76.7 ± 7.7%; Cx43/Cx26 Selectivity ([1]; Table 7): 1.93; Cx43 Imax ([1]; the 22nd table): 80.6 ± 6.0%; IC50 ([1]; the 22nd table): 8.9 ± 1.6 µM; Cx43 Imax ([1]; the 24th table): 80.6 ± 6.0%; IC50 ([1]; the 24th table): 8.9 ± 1.6 µM; Cx26 Imax [3, 11]: 95.9 ± 10.9; IC50 [3, 12]: 17.2 ± 3.2 µM; Cx26 Imax ([3]; the 22nd table): 95.9 ± 10.9%; Cx26 Imax ([3]; the 24th table): 95.9 ± 10.9% |
| CCCCCCCC(=O)NCC1O[C@H](OC2C(N)CC(N)C(OC3O[C@H](CO)C(O)C(N)[C@H]3O)[C@H]2O)C(O)C(O)[C@@H]1O (some centres unmarked) [KI02] | 17 ± 5.2 | 37.2 ± 7.6 | 14 ± 2.1 | 25.2 ± 2.3 |  |  | 17 ± 5.2 | 37.2 ± 7.6 |  |  |  | 14 ± 2.1 | 25.2 ± 2.3 | 17 ± 5.2 | 37.2 ± 7.6 |  |
| CCCCCCCCCC(=O)NCC1O[C@H](OC2C(N)CC(N)C(OC3O[C@H](CO)C(O)C(N)[C@H]3O)[C@H]2O)C(O)C(O)[C@@H]1O (some centres unmarked) [KI03] | 44.4 ± 5.3 | 53.5 ± 1.9 | 16.1 ± 3.2 | 33.6 ± 3.8 |  |  | 44.4 ± 5.3 | 53.5 ± 1.9 |  |  |  | 16.1 ± 3.2 | 33.6 ± 3.8 | 44.4 ± 5.3 | 53.5 ± 1.9 |  |
| CCCCCCCCCCCC(=O)NCC1O[C@H](OC2C(N)CC(N)C(OC3O[C@H](CO)C(O)C(N)[C@H]3O)[C@H]2O)C(O)C(O)[C@@H]1O (some centres unmarked) [KI04] |  |  | 16.4 ± 2.3 | 56.2 ± 6.8 |  |  | > 50 | 70.9 ± 2.3 | 9.7 ± 1.8 | 82.2 ± 5.9 | 9.7 ± 1.8 | 16.4 ± 2.3 | 56.2 ± 6.8 | 43.9 ± 4.3 | 58.2 ± 3.9 | Cx43 inhibition (%) ([1]; Table 6, listed as 4i): 53.6 ± 4.6%; Cx43/Cx26 Selectivity ([1]; Table 7, listed as 4i): 6.88; Cx26 Imax [3, 11]: 118.0 ± 7.6; IC50 [3, 12]: 66.7 ± 6.9 µM |
| NC1CC(N)C(O[C@H]2OC(CNC(=O)c3cc(-c4ccccc4)nc4ccccc34)[C@@H](O)C(O)C2O)[C@H](O)C1OC1O[C@H](CO)C(O)C(N)[C@H]1O (some centres unmarked) [KI08] | 25.5 ± 7.1 | 51 ± 2.5 | 8.8 ± 2 | 22.8 ± 2.2 |  |  | 25.5 ± 7.1 | 51 ± 2.5 |  |  |  | 8 ± 2 | 22.8 ± 2.2 | 25.5 ± 7.1 | 51 ± 2.5 |  |
| NC1CC(N)C(O[C@H]2OC(CNC(=O)CCCc3ccc4ccc5cccc6ccc3c4c56)[C@@H](O)C(O)C2O)[C@H](O)C1OC1O[C@H](CO)C(O)C(N)[C@H]1O (some centres unmarked) [KI09] |  |  | 36.9 ± 3.9 | 79.2 ± 7.5 |  |  | > 50 | 69.6 ± 7.5 | 8.6 ± 1 | 80.2 ± 7.0 | 8.6 ± 3 | 36.9 ± 3.9 | 79.2 ± 7.5 | 43 ± 10.7 | 56.8 ± 11 | Cx43 inhibition (%) ([1]; Table 6, listed as 4e): 52.2 ± 8.8%; Cx43/Cx26 Selectivity ([1]; Table 7): 2,16; Cx26 Imax [3, 11]: 95.3 ± 3.5; IC50 [3, 12]: 18.6 ± 2.1 µM |
| NC1CC(N)C(O[C@H]2OC(CNC(=O)c3ccccc3-c3c4ccc(=O)cc-4oc4ccc(O)cc34)[C@@H](O)C(O)C2O)[C@H](O)C1OC1O[C@H](CO)C(O)C(N)[C@H]1O (some centres unmarked) [KI10] | 56.8 ± 8.8 | 83.4 ± 1.1 | 22.3 ± 6.9 | 79.6 ± 3.5 |  |  | > 50 | 83.4 ± 1.1 | 8.9 ± 3.7 |  |  | 22.3 ± 6.9 | 79.6 ± 3.5 | 56.8 ± 8.8 | 83.4 ± 1.1 | Cx43/Cx26 Selectivity ([1]; Table 7): 1.42; IC50 ([3]; Table 7): 12.7 ± 2.2 µM |
| NC[C@H]1O[C@H](O[C@H]2[C@H](O)[C@@H](O[C@H]3O[C@H](CO)[C@@H](O)[C@H](N)[C@H]3O)[C@H](N)C[C@@H]2N)[C@H](N)[C@@H](O)[C@@H]1O [Kanamycin B] |  |  |  |  | 3.6 ± 0.9 | 24 ± 2 |  |  |  |  |  |  |  |  |  | Cx43/Cx26 Selectivity ([1]; the 16th table): 0.15 |
| NC[C@H]1O[C@H](O[C@H]2[C@H](O[C@@H]3O[C@H](CO)[C@@H](O)[C@H]3O)[C@@H](O)[C@H](N)C[C@@H]2N)[C@H](N)[C@@H](O)[C@@H]1O [Ribostamycin] |  |  |  |  | > 100 | > 200 |  |  |  |  |  |  |  |  |  |  |
| Neomycin |  |  |  |  | 7.4 ± 1.3 | 45 ± 9 |  |  |  |  |  |  |  |  |  | Cx43/Cx26 Selectivity ([1]; the 16th table): 0.16 |
